This note sets out measurements from PMC3656124, “DNA Topoisomerase II Is Involved in Regulation of Cyst Wall Protein Genes and Differentiation in Giardia lamblia” (PLoS Neglected Tropical Diseases, 2013).

The target in the assay is T1, Topo II (Giardia duodenalis, UniProt E2RU90).
T1 construct: gene GL50803_0016975
T1 sequence (E2RU90 1-1491): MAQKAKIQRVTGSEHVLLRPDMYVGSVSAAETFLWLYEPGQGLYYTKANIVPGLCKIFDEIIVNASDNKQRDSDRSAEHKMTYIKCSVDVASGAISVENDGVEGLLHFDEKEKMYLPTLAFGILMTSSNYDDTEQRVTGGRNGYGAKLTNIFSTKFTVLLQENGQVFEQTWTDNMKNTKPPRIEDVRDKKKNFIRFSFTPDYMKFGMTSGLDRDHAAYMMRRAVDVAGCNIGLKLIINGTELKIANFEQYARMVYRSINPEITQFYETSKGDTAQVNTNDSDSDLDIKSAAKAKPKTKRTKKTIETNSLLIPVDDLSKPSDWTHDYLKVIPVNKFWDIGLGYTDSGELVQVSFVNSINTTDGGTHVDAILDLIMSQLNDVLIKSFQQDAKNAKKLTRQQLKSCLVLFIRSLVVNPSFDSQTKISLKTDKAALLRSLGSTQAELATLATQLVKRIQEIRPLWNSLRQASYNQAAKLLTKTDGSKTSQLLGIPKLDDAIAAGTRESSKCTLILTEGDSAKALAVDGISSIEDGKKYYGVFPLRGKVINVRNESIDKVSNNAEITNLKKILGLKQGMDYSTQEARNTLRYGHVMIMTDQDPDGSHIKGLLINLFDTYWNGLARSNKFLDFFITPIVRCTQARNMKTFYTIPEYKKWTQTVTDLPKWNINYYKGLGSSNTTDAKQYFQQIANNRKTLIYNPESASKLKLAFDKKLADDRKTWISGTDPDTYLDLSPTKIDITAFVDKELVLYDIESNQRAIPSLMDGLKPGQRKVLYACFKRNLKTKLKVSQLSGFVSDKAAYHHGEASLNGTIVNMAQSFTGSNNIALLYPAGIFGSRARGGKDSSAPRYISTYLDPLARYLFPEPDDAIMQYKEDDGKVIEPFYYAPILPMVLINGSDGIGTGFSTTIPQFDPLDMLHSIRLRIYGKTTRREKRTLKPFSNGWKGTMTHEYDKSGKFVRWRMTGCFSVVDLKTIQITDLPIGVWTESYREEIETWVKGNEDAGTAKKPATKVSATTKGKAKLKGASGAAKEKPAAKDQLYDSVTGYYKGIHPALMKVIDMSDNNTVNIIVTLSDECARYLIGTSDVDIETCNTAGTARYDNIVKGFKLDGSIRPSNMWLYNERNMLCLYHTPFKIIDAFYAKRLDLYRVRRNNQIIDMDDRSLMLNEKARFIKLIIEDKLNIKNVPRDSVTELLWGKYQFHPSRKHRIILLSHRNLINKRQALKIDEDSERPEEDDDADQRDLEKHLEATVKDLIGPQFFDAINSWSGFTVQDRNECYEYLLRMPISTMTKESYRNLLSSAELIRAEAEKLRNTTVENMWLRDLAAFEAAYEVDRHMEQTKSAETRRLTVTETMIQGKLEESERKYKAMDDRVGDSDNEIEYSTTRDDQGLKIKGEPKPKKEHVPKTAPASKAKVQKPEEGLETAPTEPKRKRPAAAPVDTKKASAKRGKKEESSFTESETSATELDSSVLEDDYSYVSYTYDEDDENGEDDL
Description: pUC119 plasmid DNA cleavage assay, agarose gel. It counts as biochemical. Particulars: 12 mM etoposide in Me2SO (Me2SO alone also raised cleavage); 5 mM Mg2+, pH 7.5, 37 °C; traps cleavage complex.

For the compound `COc1cc([C@@H]2c3cc4c(cc3[C@@H](O[C@@H]3O[C@@H]5CO[C@@H](C)O[C@H]5[C@H](O)[C@H]3O)[C@H]3COC(=O)[C@H]23)OCO4)cc(OC)c1O` [etoposide], the “increase of DNA cleavage activity” value was “addition of etoposide slightly increased DNA cleavage activity of Topo II”.
